Laboratory results as given in patent US9657057B2, “Dipeptide and tripeptide epoxy ketone protease inhibitors” (Onyx Therapeutics, Inc., priority 2013, dated 2017).
Values after ≈ are worked out from the molar mass of the structure shown.

Tests used:
[1] = Solubility pH 7; format: physicochemical; details: pH 7, aqueous buffer
[2] = molecular target: T1, β5 (Homo sapiens, UniProt P20618+P28074); assay: ProCISE proteasome subunit assay, β5; format: biochemical
T1 construct: endogenous in cells; host or cells: MOLT-4
Protocol: (§1) This assay was used to assess the inhibitory activity against each of LMP2, LMP7, MECL1, β1, β2, and β5. Briefly, test compounds were serially diluted in DMSO at 100× concentration, then diluted to 10× in aqueous hypotonic lysis buffer. Lysate from the human acute lymphoblastic leukemia cell line, MOLT-4, was treated for 1 hour at 25° C. with compound at a final 1× concentration. […] Following this, lysate was denatured in guanidine hydrochloride, and subunits bound to probe were isolated with streptavidin-conjugated sepharose beads. Individual subunits were probed with subunit-specific primary antibodies, followed by HRP-conjugated secondary antibodies. A chemiluminescent substrate was used to generate signal associated with HRP binding, which was detected on a plate reader. Luminescent signal was normalized to protein content, then, percent activity calculated relative to DMSO-treated controls to generate IC50 curves.

[3] = molecular target: T2, LMP7 (Homo sapiens, UniProt P20618+P28062); assay: ProCISE proteasome subunit assay, LMP7; format: biochemical
T2 construct: endogenous in cells; host or cells: MOLT-4
Protocol: as §1

Row | Compound | solubility [1] | IC50 ([2]; MOLT4 lysate Hu 1 h) | IC50 ([3]; MOLT4 lysate Hu 1 h) | further results
1 | COc1ccc(C[C@H](NC(=O)[C@@H](CC(=O)OC(C)(C)C)NC(=O)OCc2ccccc2)C(=O)N[C@@H](Cc2ccccc2)C(=O)[C@@]2(C)CO2)cc1 [Compound C-2016, (R)-tert-Butyl 3-(((benzyloxy)carbonyl)amino)-4-(((S)-3-(4-methoxyphenyl)-1-(((S)-1-((R)-2-methyloxiran-2-yl)-1-oxo-3-phenylpropan-2-yl)amino)-1-oxopropan-2-yl)amino)-4-oxobutanoate] | – | 279 nM | 69.7 nM | –
2 | COc1ccc(C[C@H](NC(=O)[C@@H](CC(=O)O)NC(=O)OCc2ccccc2)C(=O)N[C@@H](Cc2ccccc2)C(=O)[C@@]2(C)CO2)cc1 [Compound C-2017, (R)-3-(((Benzyloxy)carbonyl)amino)-4-(((S)-3-(4-methoxyphenyl)-1-(((S)-1-((R)-2-methyloxiran-2-yl)-1-oxo-3-phenylpropan-2-yl)amino)-1-oxopropan-2-yl)amino)-4-oxobutanoic acid] | – | 129 nM | 37.2 nM | –
3 | COc1ccc(C[C@H](NC(=O)[C@@H](C)NC(=O)CC(C)(C)O)C(=O)N[C@@H](Cc2ccc(C)cc2)C(=O)[C@H]2CO2)cc1 [Compound C-2053, 3-hydroxy-N—((R)-1-(((S)-3-(4-methoxyphenyl)-1-(((S)-1-((R)-oxiran-2-yl)-1-oxo-3-(p-tolyl)propan-2-yl)amino)-1-oxopropan-2-yl)amino)-1-oxopropan-2-yl)-3-methylbutanamide] | 1260 µg/mL (≈ 2270 µM) | 5.27 nM | 1.82 nM | –
4 | COc1ccc(C[C@H](NC(=O)[C@H](C)NC(=O)Cc2cnc(N)s2)C(=O)N[C@@H](CC2=CCCC2)C(=O)[C@@]2(C)CO2)cc1 [Compound C-2066, (S)-2-((S)-2-(2-(2-aminothiazol-5-yl)acetamido)propanamido)-N—((S)-3-(cyclopent-1-en-1-yl)-1-((R)-2-methyloxiran-2-yl)-1-oxopropan-2-yl)-3-(4-methoxyphenyl)propanamide] | 43.6 µg/mL (≈ 74.7 µM) | – | – | –
5 | COc1ccc(C[C@H](NC(=O)[C@H](C)NC(=O)Cc2cnc(N(C)C)s2)C(=O)N[C@@H](CC2=CCCC2)C(=O)[C@@]2(C)CO2)cc1 [Compound C-2067, (S)—N—((S)-3-(cyclopent-1-en-1-yl)-1-((R)-2-methyloxiran-2-yl)-1-oxopropan-2-yl)-2-((S)-2-(2-(2-(dimethylamino)thiazol-5-yl)acetamido)propanamido)-3-(4-methoxyphenyl)propanamide] | 61.6 µg/mL (≈ 101 µM) | – | – | –
6 | COc1ccc(C[C@H](NC(=O)[C@H](C)NC(=O)Cc2cnc(N3CCC3)s2)C(=O)N[C@@H](CC2=CCCC2)C(=O)[C@@]2(C)CO2)cc1 [Compound C-2068, (S)-2-((S)-2-(2-(2-(azetidin-1-yl)thiazol-5-yl)acetamido)propanamido)-N—((S)-3-(cyclopent-1-en-1-yl)-1-((R)-2-methyloxiran-2-yl)-1-oxopropan-2-yl)-3-(4-methoxyphenyl)propanamide] | 54.6 µg/mL (≈ 87.5 µM) | – | – | –
7 | COc1ccc(C[C@H](NC(=O)[C@H](C)NC(=O)Cc2cnc(N3CCCC3)s2)C(=O)N[C@@H](CC2=CCCC2)C(=O)[C@@]2(C)CO2)cc1 [Compound C-2069, (S)—N—((S)-3-(cyclopent-1-en-1-yl)-1-((R)-2-methyloxiran-2-yl)-1-oxopropan-2-yl)-3-(4-methoxyphenyl)-2-((S)-2-(2-(2-(pyrrolidin-1-yl)thiazol-5-yl)acetamido)propanamido)propanamide] | 26.6 µg/mL (≈ 41.7 µM) | – | – | –
8 | COc1ccc(C[C@H](NC(=O)[C@H](C)NC(=O)Cc2cnc(N)o2)C(=O)N[C@@H](CC2=CCCC2)C(=O)[C@@]2(C)CO2)cc1 [Compound C-2070, (S)-2-((S)-2-(2-(2-aminooxazol-5-yl)acetamido)propanamido)-N—((S)-3-(cyclopent-1-en-1-yl)-1-((R)-2-methyloxiran-2-yl)-1-oxopropan-2-yl)-3-(4-methoxyphenyl)propanamide] | 1020 µg/mL (≈ 1800 µM) | – | – | –
9 | COc1ccc(C[C@H](NC(=O)[C@@]2(CO)CCCN2)C(=O)N[C@@H](Cc2ccccc2)C(=O)[C@@]2(C)CO2)cc1 [Compound C-3005] | 1920 µg/mL (≈ 3760 µM) | – | – | –
10 | COc1ccc(C[C@H](NC(=O)C(C)(C)N)C(=O)N[C@@H](Cc2ccccc2)C(=O)[C@@]2(C)CO2)cc1 [Compound C-3006, 2-Amino-N—((S)-3-(4-methoxyphenyl)-1-(((S)-1-((R)-2-methyloxiran-2-yl)-1-oxo-3-phenylpropan-2-yl)amino)-1-oxopropan-2-yl)-2-methylpropanamide] | 385 µg/mL (≈ 823 µM) | – | – | –

Now from value to compound, other results behind:

Row | solubility [1] | IC50 ([2]; MOLT4 lysate Hu 1 h) | IC50 ([3]; MOLT4 lysate Hu 1 h) | Compound | further results
11 | 0.7 µg/mL (≈ 1.13 µM) | – | – | CC1=C(C(=O)N[C@H](C)C(=O)N[C@@H](Cc2c[nH]c3ccccc23)C(=O)N[C@@H](Cc2ccccc2)C(=O)[C@@]2(C)CO2)Cc2ccccc21 [Compound C-2003] | –
12 | 1.9 µg/mL (≈ 3.07 µM) | – | – | CC1=C(C(=O)N[C@@H](C)C(=O)N[C@@H](Cc2c[nH]c3ccccc23)C(=O)N[C@@H](Cc2ccccc2)C(=O)[C@@]2(C)CO2)Cc2ccccc21 [Compound C-2004] | –
13 | 735 µg/mL (≈ 1480 µM) | – | – | COc1ccc(C[C@H](NC(=O)[C@H](C)NC(C)=O)C(=O)N[C@@H](Cc2ccccc2)C(=O)[C@@]2(C)CO2)cc1 [Compound C-2005] | –
14 | 163 µg/mL (≈ 318 µM) | – | – | COC(=O)N[C@@H](C)C(=O)N[C@@H](Cc1ccc(OC)cc1)C(=O)N[C@@H](Cc1ccccc1)C(=O)[C@@]1(C)CO1 [Compound C-2009, Methyl ((S)-1-(((S)-3-(4-methoxyphenyl)-1-(((S)-1-((R)-2-methyloxiran-2-yl)-1-oxo-3-phenylpropan-2-yl)amino)-1-oxopropan-2-yl)amino)-1-oxopropan-2-yl)carbamate] | –
15 | 0.3 µg/mL (≈ 0.491 µM) | 1100 nM | 68.7 nM | CC1=C(C(=O)N[C@H](C)C(=O)N[C@@H](Cc2c[nH]c3ccccc23)C(=O)N[C@@H](CC2CCCC2)C(=O)[C@@]2(C)CO2)Cc2ccccc21 [Compound C-2047, N—((R)-1-(((S)-1-(((S)-3-cyclopentyl-1-((R)-2-methyloxiran-2-yl)-1-oxopropan-2-yl)amino)-3-(1H-indol-3-yl)-1-oxopropan-2-yl)amino)-1-oxopropan-2-yl)-3-methyl-1H-indene-2-carboxamide] | –
16 | 0.8 µg/mL (≈ 1.31 µM) | – | – | COc1ccc(C[C@H](NC(=O)[C@H](C)NC(=O)C2=C(C)c3ccccc3C2)C(=O)N[C@@H](Cc2ccccc2)C(=O)[C@@]2(C)CO2)cc1 [Compound C-2049, N—((S)-1-(((S)-3-(4-methoxyphenyl)-1-(((S)-1-((R)-2-methyloxiran-2-yl)-1-oxo-3-phenylpropan-2-yl)amino)-1-oxopropan-2-yl)amino)-1-oxopropan-2-yl)-3-methyl-1H-indene-2-carboxamide] | IC50 ([2]; ProCISE beta5 MOLT4 lysate Hu 1 h CONT: IC50 (nM)): 57.6 nM; IC50 ([3]; ProCISE LMP7 MOLT4 lysate Hu 1 h CONT: IC50 (nM)): 45.8 nM
17 | 1970 µg/mL (≈ 3400 µM) | 354 nM | 17.6 nM | C[C@@H](NC(=O)CC(C)(C)O)C(=O)N[C@@H](Cc1ccc(S(C)(=O)=O)cc1)C(=O)N[C@@H](CC1CCCC1)C(=O)[C@H]1CO1 [Compound C-2055, N—((R)-1-(((S)-1-(((S)-3-cyclopentyl-1-((R)-oxiran-2-yl)-1-oxopropan-2-yl)amino)-3-(4-(methylsulfonyl)phenyl)-1-oxopropan-2-yl)amino)-1-oxopropan-2-yl)-3-hydroxy-3-methylbutanamide] | –
18 | 45.4 µg/mL (≈ 82.9 µM) | 4290 nM | 539 nM | COc1ccc(C[C@H](NC(=O)[C@@H](C)NC(=O)C2=CCCC2)C(=O)N[C@@H](Cc2ccccc2)C(=O)[C@@]2(C)CO2)cc1 [Compound C-2058, N—((R)-1-(((S)-3-(4-methoxyphenyl)-1-(((S)-1-((R)-2-methyloxiran-2-yl)-1-oxo-3-phenylpropan-2-yl)amino)-1-oxopropan-2-yl)amino)-1-oxopropan-2-yl)cyclopent-1-enecarboxamide] | –
19 | 26.3 µg/mL (≈ 44.6 µM) | – | – | COc1ccc(C[C@H](NC(=O)[C@@H](C)NC(=O)c2ccc3[nH]ncc3c2)C(=O)N[C@@H](CC2CCCC2)C(=O)[C@@]2(C)CO2)cc1 [Compound C-2061, N—((R)-1-(((S)-1-(((S)-3-cyclopentyl-1-((R)-2-methyloxiran-2-yl)-1-oxopropan-2-yl)amino)-3-(4-methoxyphenyl)-1-oxopropan-2-yl)amino)-1-oxopropan-2-yl)-1H-indazole-5-carboxamide] | –
20 | 56 µg/mL (≈ 95 µM) | – | – | COc1ccc(C[C@H](NC(=O)[C@@H](C)NC(=O)c2ccc3[nH]cnc3c2)C(=O)N[C@@H](CC2CCCC2)C(=O)[C@@]2(C)CO2)cc1 [Compound C-2062, N—((R)-1-(((S)-1-(((S)-3-cyclopentyl-1-((R)-2-methyloxiran-2-yl)-1-oxopropan-2-yl)amino)-3-(4-methoxyphenyl)-1-oxopropan-2-yl)amino)-1-oxopropan-2-yl)-1H-benzo[d]imidazole-5-carboxamide] | –
21 | 21.4 µg/mL (≈ 36.3 µM) | – | – | COc1ccc(C[C@H](NC(=O)[C@@H](C)NC(=O)c2ccc3cn[nH]c3c2)C(=O)N[C@@H](CC2CCCC2)C(=O)[C@@]2(C)CO2)cc1 [Compound C-2063, N—((R)-1-(((S)-1-(((S)-3-cyclopentyl-1-((R)-2-methyloxiran-2-yl)-1-oxopropan-2-yl)amino)-3-(4-methoxyphenyl)-1-oxopropan-2-yl)amino)-1-oxopropan-2-yl)-1H-indazole-6-carboxamide] | –
22 | 144 µg/mL (≈ 242 µM) | 6110 nM | 139 nM | COc1ccc(C[C@H](NC(=O)[C@@H](C)NC(=O)[C@@H]2CCc3[nH]ncc3C2)C(=O)N[C@@H](CC2CCCC2)C(=O)[C@@]2(C)CO2)cc1 [Compound C-2064, (R)—N—((R)-1-(((S)-1-(((S)-3-cyclopentyl-1-((R)-2-methyloxiran-2-yl)-1-oxopropan-2-yl)amino)-3-(4-methoxyphenyl)-1-oxopropan-2-yl)amino)-1-oxopropan-2-yl)-4,5,6,7-tetrahydro-1H-indazole-5-carboxamide] | –
